Measurements taken from patent US20220080025A1, “VITAMIN E AND CANCER THERAPEUTIC COMPOSITIONS AND METHODS” (University of Vermont and State Agricultural College, priority 2019, published 2022).
Values after ≈ are worked out from the molar mass of the structure shown.

Tests used:
[1] = system: LP9 cells; assay: Cell viability of LP9 mesothelial cells, 48 h, crystal violet staining; format: cell-based; details: VitE-TPGS (w/v) in 0.9% NaCl
Method: (§1) Studies were performed to test the effects on cell viability of mesothelial (LP9) and malignant mesothelioma (HM) cells in culture when contacted with thiostrepton (TS) or TS diluted in Vitamin E-TPGS (VitE-TPGS, D-alpha-tocopherol polyethylene glycol 1000 succinate).
(§2) Indicated cell lines were plated into 96 well plates and allowed to adhere overnight. The following day test compounds were serially diluted in duplicate wells onto cells in complete tissue culture media. VitE-TPGS was serially diluted from a starting concentration of 0.025% (w/v) in 0.9% NaCl and added to LP9 or HM cells (FIG. 1). TS, dissolved in DMSO, was diluted to a starting concentration of 20 μM into cell culture media and serially diluted or diluted from a 1.5 mM TS/DMSO/5% VitE-TPGS (33 mM)/0.9% NaCl solution to a starting concentration of 20 μM TS/0.06% VitE-TPGS and serially diluted onto LP9 or HM cells (FIG. 2). Cells were incubated with test compounds for 48 hours before determining cell number using an indirect readout of cell viability by staining residual cells with crystal violet. The inhibitory concentration (IC50) in which 50% of the cells are not viable, was determined for tested compounds.

[2] = system: HM cells; assay: Cell viability of HM malignant mesothelioma cells, 48 h, crystal violet staining; format: cell-based
Method: as §1, §2

[3] = Equilibrium (intrinsic) solubility of the test article in formulation mixtures, 24h, LC/MS; details: for solubility at 24 h: aqueous with cosolvent or surfactant or cyclodextrin, thermodynamic from solid
Method: (§3) This study was performed to determine the intrinsic solubility of the test article in a variety of formulation systems as detailed below.
(§4) This method measured equilibrium solubility after 24h incubation with the desired formulation mixture. The solubility of the test article in each formulation mixture was measured by comparison of the AUC of the LC/MS spectrum obtained by injection of the solution of the test article in the desired solvent to the AUC of a reference standard solution. […] The reference solution was made fresh for every time point. Data was then calculated to give % test article remaining as function of time.
(§5) 1) A stock solution of the active pharmaceutical ingredient (API) was prepared in a 1,4-dioxane at 10 mM. 2) Nineteen 200 μl portions of stock were dispensed into 19 clean 500 μl micro-centrifuge tubes and the solvent removed by a stream of nitrogen. The 19 tubes were marked with numbers 1-19. 3) Five 200 μl portions of stock were dispensed into 5 clean 200 μl micro-centrifuge tubes and the solvent removed by a stream of nitrogen; these tubes were marked: S1, S2, S3, S4 and S5 and were to be saved for quantization by LC/MS. 4) The vehicles were prepared on a w/w basis for co-solvents, and on a molar basis for salts. 5) 200 μL of each vehicle was introduced into the appropriate micro centrifuge tube 1-19, corresponding to that vehicle. The final concentration of API was 10 mM. These were the test samples. 6) The sample tubes 1-19 were sonicated for 30 min and then agitated for 24h. 7) The vessel was centrifuged and 50 μl of the supernatant was removed and diluted with 350 μl of acetonitrile for LC/MS analysis. These were the test samples. 8) Micro-centrifuge tubes S1-S5 were reconstituted immediately before analysis by adding 200 μl of acetonitrile and 200 μl od 1,4-dioxane to the tubes and sonicating for 30 min. These were the standards. 9) Before analysis all 24 tubes were centrifuged. 10) 50 μl of the clear supernatant from Sample tubes 1-19 was removed and diluted into 350 μl of acetonitrile for LC/MS analysis. 11) 100 μl of the clear supernatant from Standard tubes S1-S5 was removed and diluted into 300 μl of acetonitrile for LC/MS analysis.
(§6) 13) Quantization was based on comparison to the AUC from the stock solution and was relative.
(§7) A freshly prepared standard was used for each time point.

[4] = physchem; details: 5% VitE-TPGS in normal saline, aqueous with cosolvent or surfactant or cyclodextrin, thermodynamic from solid
Method: as §3, §4, §5, §6, §7

## D-a-tocopheryl polyethylene glycol 1000 succinate [VitE-TPGS]
[1]
  IC50: 0.0014%
[2]; HM cells, VitE-TPGS (w/v) in 0.9% NaCl
  IC50: 0.0006%

## C=C(NC(=O)C(=C)NC(=O)c1csc(C2=N[C@@H]3c4csc(n4)[C@H]4NC(=O)c5csc(n5)[C@H]([C@](C)(O)[C@@H](C)O)NC(=O)[C@H]5CSC(=N5)/C(=C/C)NC(=O)[C@H]([C@@H](C)O)NC(=O)c5csc(n5)[C@]3(CC2)NC(=O)[C@H](C)NC(=O)C(=C)NC(=O)[C@H](C)NC(=O)[C@H]([C@@H](C)CC)N[C@@H]2C=Cc3c([C@H](C)O)cc(nc3[C@H]2O)C(=O)O[C@@H]4C)n1)C(N)=O [TS, Thiostrepton]
[3]; 1% polyacrylic acid (450,000 amw) in normal saline
  solubility at 24 h: 130 µM (≈ 216 µg/mL)
[3]; 1% polyvinylalcohol (61,000 amw) in normal saline
  solubility at 24 h: 200 µM (≈ 333 µg/mL)
[3]; 1,4-dioxane and chloroform
  Solubility (in words): freely soluble
[3]; 2% Tween 80 in normal saline
  solubility at 24 h: 220 µM (≈ 366 µg/mL)
[3]; 10% Cremophore in normal saline
  solubility at 24 h: 1140 µM (≈ 1900 µg/mL)
[3]; 10% Solutol HS 15 in normal saline
  solubility at 24 h: 520 µM (≈ 866 µg/mL)
[3]; 10% capmul in normal saline
  solubility at 24 h: 50 µM (≈ 83.2 µg/mL)
[3]; 10% meglumine in normal saline
  solubility at 24 h: 200 µM (≈ 333 µg/mL)
[3]; 20% Captisol in normal saline
  solubility at 24 h: 380 µM (≈ 633 µg/mL)
[3]; 20% Gelucire 44/14 in normal saline
  solubility at 24 h: 1170 µM (≈ 1950 µg/mL)
[3]; 20% Labrafil 1944CS in normal saline
  solubility at 24 h: 490 µM (≈ 816 µg/mL)
[3]; 20% Peceol in normal saline
  solubility at 24 h: 300 µM (≈ 499 µg/mL)
[3]; 20% hydroxypropyl-beta-cyclodextrin in normal saline
  solubility at 24 h: 440 µM (≈ 733 µg/mL)
[3]; 20% poloxamer 188 in normal saline
  solubility at 24 h: 210 µM (≈ 350 µg/mL)
[3]; 20% transcutol in normal saline
  solubility at 24 h: 660 µM (≈ 1100 µg/mL)
[3]; 30% Capryol 90 in normal saline
  solubility at 24 h: 1470 µM (≈ 2450 µg/mL)
[3]; 30% Labrafac PG in normal saline
  solubility at 24 h: 380 µM (≈ 633 µg/mL)
[3]; 30% Labrasol in normal saline
  solubility at 24 h: 150 µM (≈ 250 µg/mL)
[3]; 30% polyethylene glycol 300 in normal saline
  solubility at 24 h: 320 µM (≈ 533 µg/mL)
[3]; aqueous solutions and a variety of organic solvents
  Solubility (in words): fairly low solubility
[4]
  solubility at 24 h: 1740 µM (≈ 2900 µg/mL)
[2]; HM vs LP9 cells
  Sensitivity of HM cells compared to LP9 cells: more sensitive
